Measurements published in PubChem BioAssay (NCI).
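96-well plates; 48 h exposure; 5 concentrations. Endpoints by linear interpolation between flanking doses. Not reached: highest tested concentration assigned. Abbreviation: GI50, concentration required for 50% inhibition of growth. TGI denotes the concentration required for complete inhibition of growth.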

Columns and labels:
Experiment in all cases: growth of human tumour cells (NCI), 48 h
CAKI-1 renal = system: CAKI-1 renal
CCRF-CEM leukemia = system: CCRF-CEM leukemia
U251 CNS = system: U251 CNS
HCC-2998 colon = system: HCC-2998 colon
RXF 393 renal = system: RXF 393 renal
A549 NSCLC = system: A549 NSCLC
HOP-92 NSCLC = system: HOP-92 NSCLC
NCI-H460 lung = system: NCI-H460 lung
UO-31 renal = system: UO-31 renal
OVCAR-4 ovarian = system: OVCAR-4 ovarian
SF-539 CNS = system: SF-539 CNS
SNB-19 CNS = system: SNB-19 CNS
HCT-116 colon = system: HCT-116 colon
SW-620 colon = system: SW-620 colon
MDA-MB-435 = system: MDA-MB-435
HCT-15 colon = system: HCT-15 colon
NCI-H522 lung = system: NCI-H522 lung
M14 melanoma = system: M14 melanoma
HS 578T breast = system: HS 578T breast
SN12C renal = system: SN12C renal
NCI/ADR-RES ovarian = system: NCI/ADR-RES ovarian
SF-268 CNS = system: SF-268 CNS
KM12 colon = system: KM12 colon
OVCAR-5 ovarian = system: OVCAR-5 ovarian
MOLT-4 leukemia = system: MOLT-4 leukemia
DU-145 prostate = system: DU-145 prostate
COLO 205 colon = system: COLO 205 colon
SF-295 CNS = system: SF-295 CNS
SK-MEL-28 melanoma = system: SK-MEL-28 melanoma
ACHN renal = system: ACHN renal
EKVX NSCLC = system: EKVX NSCLC
NCI-H226 lung = system: NCI-H226 lung
OVCAR-8 ovarian = system: OVCAR-8 ovarian
786-0 renal = system: 786-0 renal
HOP-62 NSCLC = system: HOP-62 NSCLC
HL-60(TB) leukemia = system: HL-60(TB) leukemia
UACC-62 melanoma = system: UACC-62 melanoma
T-47D breast = system: T-47D breast
MALME-3M melanoma = system: MALME-3M melanoma
K-562 leukemia = system: K-562 leukemia
SK-MEL-2 melanoma = system: SK-MEL-2 melanoma
MCF7 breast = system: MCF7 breast
SNB-75 CNS = system: SNB-75 CNS
RPMI-8226 leukemia = system: RPMI-8226 leukemia
A498 renal = system: A498 renal
IGROV1 ovarian = system: IGROV1 ovarian
SR leukemia = system: SR leukemia
PC-3 prostate = system: PC-3 prostate
LOX IMVI melanoma = system: LOX IMVI melanoma
MDA-MB-231 breast = system: MDA-MB-231 breast
BT-549 breast = system: BT-549 breast
NCI-H23 lung = system: NCI-H23 lung
SK-MEL-5 melanoma = system: SK-MEL-5 melanoma
TK-10 renal = system: TK-10 renal
SK-OV-3 ovarian = system: SK-OV-3 ovarian
OVCAR-3 ovarian = system: OVCAR-3 ovarian

With COc1ccc([C@H]2C(=O)N(c3cc(OC)c(OC)c(OC)c3)[C@@H]2c2ccc(OC)c(O)c2)cc1 the GI50 (CAKI-1 renal) was 49 nM, the TGI (CAKI-1 renal) was > 100000 nM and the GI50 (CCRF-CEM leukemia) was 30.8 nM. For the same compound, the TGI (CCRF-CEM leukemia) was > 100000 nM, the GI50 (U251 CNS) was 32.2 nM and the TGI (U251 CNS) was > 100000 nM. The GI50 (HCC-2998 colon) was 36.1 nM, the TGI (HCC-2998 colon) was 15500 nM and the GI50 (RXF 393 renal) was 46.7 nM. For the same compound, the TGI (RXF 393 renal) was 41200 nM, the GI50 (A549 NSCLC) was 40.1 nM and the TGI (A549 NSCLC) was > 100000 nM. The GI50 (HOP-92 NSCLC) was 1190 nM, the TGI (HOP-92 NSCLC) was 78300 nM and the GI50 (NCI-H460 lung) was 36.5 nM. It also gave a TGI (NCI-H460 lung) of 24800 nM, a GI50 (UO-31 renal) of 72 nM and a TGI (UO-31 renal) of 38200 nM. For the same compound, the GI50 (OVCAR-4 ovarian) was 17100 nM, the TGI (OVCAR-4 ovarian) was > 100000 nM and the GI50 (SF-539 CNS) was 20.4 nM. The TGI (SF-539 CNS) was 53.7 nM, the GI50 (SNB-19 CNS) was 45.4 nM and the TGI (SNB-19 CNS) was > 100000 nM. The GI50 (HCT-116 colon) was 29.2 nM, the TGI (HCT-116 colon) was > 100000 nM and the GI50 (SW-620 colon) was 51.6 nM. For the same compound, the TGI (SW-620 colon) was > 100000 nM, the GI50 (MDA-MB-435) was 29.7 nM and the TGI (MDA-MB-435) was 1850 nM. For the same compound, the GI50 (HCT-15 colon) was 30.5 nM, the TGI (HCT-15 colon) was > 100000 nM and the GI50 (NCI-H522 lung) was 12.4 nM. It also gave a TGI (NCI-H522 lung) of 49.1 nM, a GI50 (M14 melanoma) of 34.1 nM and a TGI (M14 melanoma) of 17500 nM. The GI50 (HS 578T breast) was 42.2 nM, the TGI (HS 578T breast) was > 100000 nM and the GI50 (SN12C renal) was 43.5 nM. The TGI (SN12C renal) was > 100000 nM, the GI50 (NCI/ADR-RES ovarian) was 19.5 nM and the TGI (NCI/ADR-RES ovarian) was 51.3 nM. The GI50 (SF-268 CNS) was 1410 nM, the TGI (SF-268 CNS) was > 100000 nM and the GI50 (KM12 colon) was 44.5 nM. For the same compound, the TGI (KM12 colon) was > 100000 nM, the GI50 (OVCAR-5 ovarian) was 45.9 nM and the TGI (OVCAR-5 ovarian) was > 100000 nM. The GI50 (MOLT-4 leukemia) was 46.4 nM, the TGI (MOLT-4 leukemia) was > 100000 nM and the GI50 (DU-145 prostate) was 52.7 nM. For the same compound, the TGI (DU-145 prostate) was > 100000 nM, the GI50 (COLO 205 colon) was 30.3 nM and the TGI (COLO 205 colon) was 83 nM. For the same compound, the GI50 (SF-295 CNS) was 29.8 nM, the TGI (SF-295 CNS) was 22700 nM and the GI50 (SK-MEL-28 melanoma) was 4030 nM. The TGI (SK-MEL-28 melanoma) was > 100000 nM, the GI50 (ACHN renal) was 53.5 nM and the TGI (ACHN renal) was 69900 nM. The GI50 (EKVX NSCLC) was 40.1 nM, the TGI (EKVX NSCLC) was > 100000 nM and the GI50 (NCI-H226 lung) was 27.4 nM. For the same compound, the TGI (NCI-H226 lung) was 89.8 nM, the GI50 (OVCAR-8 ovarian) was 29.9 nM and the TGI (OVCAR-8 ovarian) was > 100000 nM. The GI50 (786-0 renal) was 32.4 nM, the TGI (786-0 renal) was > 100000 nM and the GI50 (HOP-62 NSCLC) was 56.2 nM. The TGI (HOP-62 NSCLC) was > 100000 nM, the GI50 (HL-60(TB) leukemia) was 21.6 nM and the TGI (HL-60(TB) leukemia) was 52.7 nM. The GI50 (UACC-62 melanoma) was 44.8 nM, the TGI (UACC-62 melanoma) was 26700 nM and the GI50 (T-47D breast) was 27300 nM. For the same compound, the TGI (T-47D breast) was > 100000 nM, the GI50 (MALME-3M melanoma) was 35.7 nM and the TGI (MALME-3M melanoma) was 34500 nM. For the same compound, the GI50 (K-562 leukemia) was 27.6 nM, the TGI (K-562 leukemia) was > 100000 nM and the GI50 (SK-MEL-2 melanoma) was 50.2 nM. The TGI (SK-MEL-2 melanoma) was > 100000 nM, the GI50 (MCF7 breast) was 32.7 nM and the TGI (MCF7 breast) was > 100000 nM. The GI50 (SNB-75 CNS) was 861 nM, the TGI (SNB-75 CNS) was > 100000 nM and the GI50 (RPMI-8226 leukemia) was 38.7 nM. For the same compound, the TGI (RPMI-8226 leukemia) was 17300 nM, the GI50 (A498 renal) was 33600 nM and the TGI (A498 renal) was > 100000 nM. For the same compound, the GI50 (IGROV1 ovarian) was 42.4 nM, the TGI (IGROV1 ovarian) was > 100000 nM and the GI50 (SR leukemia) was 25.8 nM. For the same compound, the TGI (SR leukemia) was > 100000 nM, the GI50 (PC-3 prostate) was 50 nM and the TGI (PC-3 prostate) was > 100000 nM. It also gave a GI50 (LOX IMVI melanoma) of 26.1 nM, a TGI (LOX IMVI melanoma) of 82100 nM and a GI50 (MDA-MB-231 breast) of 31.8 nM. For the same compound, the TGI (MDA-MB-231 breast) was > 100000 nM, the GI50 (BT-549 breast) was 58 nM and the TGI (BT-549 breast) was 3830 nM. It also gave a GI50 (NCI-H23 lung) of 37.8 nM, a TGI (NCI-H23 lung) of 72200 nM and a GI50 (SK-MEL-5 melanoma) of 20.2 nM. The TGI (SK-MEL-5 melanoma) was 42.9 nM, the GI50 (TK-10 renal) was 16200 nM and the TGI (TK-10 renal) was > 100000 nM. The GI50 (SK-OV-3 ovarian) was 42.2 nM, the TGI (SK-OV-3 ovarian) was > 100000 nM and the GI50 (OVCAR-3 ovarian) was 63.5 nM. For the same compound, the TGI (OVCAR-3 ovarian) was > 100000 nM.
